pIC50: −log10 of the molar value.
Assays:
[1] = molecular target: T1, purified, recombinant human DPIV (Homo sapiens, UniProt P27487); test: Inhibition of enzymatic activity of DPIV (fluorogenic substrate hydrolysis); type: biochemical; details: highest test item concentration 25 μM
T1 construct: made in house; host or cells: Sf9 insect cells
How it was run: (§1)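 Recombinant human DPIV (Sf9-derived, approx. 1 nM) and recombinant DP8/DP9 in 0.05M Tris/HCl pH 7.5 with 0.05% Triton, 0.05% BSA, 2 mM MgCl2. Substrates were Gly-Pro-AMC at 50 μM (ex 380/em 460 nm, read at 0–120 min) or (Ala-Pro)2-R110 at 1 μM (ex 488/em 530 nm). IC50 from ≥16 log2 dilutions, top 25 μM.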

T lymphocytes (T cells) = test: Suppression of DNA synthesis of PHA-stimulated T lymphocytes; type: cell-based; details: Homo sapiens, T-cell, 48 h, tritium thymidine incorporation, read-out: Supp. DNA Synt. T-cell IC50
How it was run: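 Healthy-donor PBMC and nylon-wool-purified T cells in serum-free AIMV medium were stimulated 48 h with 1 µg/ml PHA, with compound (0.1–250 µM) present throughout. IC50 was estimated graphically from proliferation relative to PHA-activated T cells without compound.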

NHEK cells = test: Inhibition of DNA synthesis and proliferation of normal human epidermal keratinocytes (NHEK); type: cell-based; details: Homo sapiens, NHEK, 48 h, EGF-stimulated NHEK, BrdU incorporation, read-out: Supp. DNA Synt. NHEK IC50
How it was run: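 Primary human keratinocytes were grown 48 h in serum-free medium with EGF and pituitary extract, with compounds at 0.1–100 μM. DNA synthesis was measured by BrdU incorporation ELISA relative to untreated controls (100%), and IC50 was derived graphically.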

[2] = molecular target: T2, aminopeptidase N (APN), purified recombinant human enzyme (Homo sapiens, UniProt P15144); test: Inhibition of enzymatic activity of aminopeptidase N (fluorogenic substrate hydrolysis); type: biochemical; details: highest test item concentration 25 μM
T2 construct: made in house; host or cells: ECV cells (transfected)
T2 sequence (P15144 whole entry): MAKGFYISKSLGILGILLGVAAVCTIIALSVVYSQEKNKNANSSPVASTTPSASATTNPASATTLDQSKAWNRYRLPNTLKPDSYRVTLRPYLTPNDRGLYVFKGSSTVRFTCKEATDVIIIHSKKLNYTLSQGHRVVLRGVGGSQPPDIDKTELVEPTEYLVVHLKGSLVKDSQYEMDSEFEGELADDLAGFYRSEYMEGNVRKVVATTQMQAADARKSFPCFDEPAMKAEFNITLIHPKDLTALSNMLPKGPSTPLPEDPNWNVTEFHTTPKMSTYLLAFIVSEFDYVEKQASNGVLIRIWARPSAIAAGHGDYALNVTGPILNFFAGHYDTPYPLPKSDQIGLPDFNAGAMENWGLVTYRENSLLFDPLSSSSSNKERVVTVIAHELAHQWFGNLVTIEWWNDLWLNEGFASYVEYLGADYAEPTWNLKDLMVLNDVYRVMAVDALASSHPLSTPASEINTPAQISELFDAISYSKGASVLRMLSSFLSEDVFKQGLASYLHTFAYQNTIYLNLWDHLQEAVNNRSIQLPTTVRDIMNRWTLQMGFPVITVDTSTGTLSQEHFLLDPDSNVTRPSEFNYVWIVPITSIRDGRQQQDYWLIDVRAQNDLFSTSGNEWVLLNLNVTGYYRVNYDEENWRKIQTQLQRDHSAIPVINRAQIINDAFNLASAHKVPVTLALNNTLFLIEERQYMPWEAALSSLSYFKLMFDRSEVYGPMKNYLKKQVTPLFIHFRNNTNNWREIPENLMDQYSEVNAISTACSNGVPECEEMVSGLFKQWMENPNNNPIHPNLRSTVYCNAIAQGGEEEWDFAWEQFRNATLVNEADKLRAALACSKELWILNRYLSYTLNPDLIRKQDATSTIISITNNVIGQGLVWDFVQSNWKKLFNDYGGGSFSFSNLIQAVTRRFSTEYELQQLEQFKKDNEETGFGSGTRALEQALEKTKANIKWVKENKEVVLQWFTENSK
How it was run: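 Recombinant human APN from transfected ECV cells was used at approx. 1 nM final, in 0.05M TRIS/HCl pH 7.5 with 0.05% Triton, 0.05% BSA and 2 mM MgCl2. Fluorescence release was read from H-Ala-AMC (50 μM) or (Ala-)2-R110 (1 μM). IC50 values came from at least 16 log2 dilutions starting at 25 μM top concentration.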

[3] = molecular target: T3, cytosolic aminopeptidase (cAAP) purified from Jurkat cells (Homo sapiens, UniProt P55786); test: Inhibition of enzymatic activity of cytosolic aminopeptidase (cAAP); type: biochemical; details: highest test item concentration 25 μM
T3 construct: The cytosolic aminopeptidase (cAAP) was purified from Jurkat cells; endogenous in cells; host or cells: Jurkat cells (enzyme purified from them)
T3 sequence (P55786 whole entry): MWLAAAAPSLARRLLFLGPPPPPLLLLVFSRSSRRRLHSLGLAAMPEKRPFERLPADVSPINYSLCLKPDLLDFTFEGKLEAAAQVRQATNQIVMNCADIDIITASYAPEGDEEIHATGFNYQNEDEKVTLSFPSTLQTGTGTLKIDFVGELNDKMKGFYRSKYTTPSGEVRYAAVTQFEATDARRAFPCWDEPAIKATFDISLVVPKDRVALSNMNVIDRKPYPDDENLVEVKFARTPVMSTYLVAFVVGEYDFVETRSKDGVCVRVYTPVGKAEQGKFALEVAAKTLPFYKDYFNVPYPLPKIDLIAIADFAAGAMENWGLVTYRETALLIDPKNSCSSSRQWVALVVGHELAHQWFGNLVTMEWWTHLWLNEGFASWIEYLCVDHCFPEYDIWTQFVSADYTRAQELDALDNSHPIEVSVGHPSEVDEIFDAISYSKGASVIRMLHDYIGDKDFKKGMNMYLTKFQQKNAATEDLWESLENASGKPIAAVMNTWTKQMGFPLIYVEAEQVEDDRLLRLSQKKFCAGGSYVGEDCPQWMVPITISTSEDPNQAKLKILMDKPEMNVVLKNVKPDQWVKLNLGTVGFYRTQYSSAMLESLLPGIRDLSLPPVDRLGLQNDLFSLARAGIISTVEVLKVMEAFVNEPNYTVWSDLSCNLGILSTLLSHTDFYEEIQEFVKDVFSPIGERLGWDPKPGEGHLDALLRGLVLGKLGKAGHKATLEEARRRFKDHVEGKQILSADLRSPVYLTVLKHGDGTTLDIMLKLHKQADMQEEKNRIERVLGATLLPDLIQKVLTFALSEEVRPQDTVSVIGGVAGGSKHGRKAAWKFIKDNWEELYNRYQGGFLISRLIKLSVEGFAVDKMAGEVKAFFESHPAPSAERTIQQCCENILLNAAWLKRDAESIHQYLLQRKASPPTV

SZ95 cells = test: Inhibition of DNA synthesis and proliferation of immortalized human sebocytes SZ95; type: cell-based; details: Homo sapiens, EGF-stimulated SZ95 sebocytes, tritium thymidine incorporation; read-out: Supp. DNA Synt. SZ95 IC50
How it was run: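 EGF-stimulated SZ95 sebocytes in serum-free Sebomed Complete, treated with test items at 0.1–100 μM. DNA synthesis read by 3H-thymidine incorporation (beta counting), expressed relative to untreated cells (100%). IC50 for proliferation suppression derived graphically.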

[4] = system: purified, recombinant DP8 and DP9; test: Inhibition of enzymatic activity of DP8/9; type: biochemical; details: highest test item concentration 25 μM
How it was run: as §1

T1 sequence (P27487 whole entry): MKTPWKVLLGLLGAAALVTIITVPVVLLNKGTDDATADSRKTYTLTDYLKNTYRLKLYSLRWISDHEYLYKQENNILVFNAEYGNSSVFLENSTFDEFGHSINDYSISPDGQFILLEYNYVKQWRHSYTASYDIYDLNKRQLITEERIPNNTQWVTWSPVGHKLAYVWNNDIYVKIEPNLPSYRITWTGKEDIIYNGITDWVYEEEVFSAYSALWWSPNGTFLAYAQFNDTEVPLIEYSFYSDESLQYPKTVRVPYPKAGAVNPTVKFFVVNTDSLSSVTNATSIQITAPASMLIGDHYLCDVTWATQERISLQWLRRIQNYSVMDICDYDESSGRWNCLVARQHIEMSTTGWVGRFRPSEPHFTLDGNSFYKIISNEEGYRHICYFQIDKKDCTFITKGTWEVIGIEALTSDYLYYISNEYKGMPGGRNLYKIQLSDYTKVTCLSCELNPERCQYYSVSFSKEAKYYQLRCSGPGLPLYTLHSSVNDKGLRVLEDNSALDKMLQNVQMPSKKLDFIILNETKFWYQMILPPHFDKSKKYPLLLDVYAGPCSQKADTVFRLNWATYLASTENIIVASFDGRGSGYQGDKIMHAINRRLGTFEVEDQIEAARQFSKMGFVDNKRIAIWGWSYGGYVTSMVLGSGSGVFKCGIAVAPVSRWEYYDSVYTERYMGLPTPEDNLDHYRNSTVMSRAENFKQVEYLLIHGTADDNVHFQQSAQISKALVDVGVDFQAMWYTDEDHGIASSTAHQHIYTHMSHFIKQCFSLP

In the case of `CC(C)(CNC(=O)CC(Cc1cc(F)ccc1F)NC(=O)OCc1ccccc1)CNC(=O)C(O)C(COCc1ccccc1)NC(=O)OC(C)(C)C` (stereo not shown) [Compound C19.027], the “meas. IC50 (DPIV)” value [1] was “No in- hibition”, the pIC50 (T lymphocytes (T cells)) was 5.28 and the pIC50 (NHEK cells) was 4.38. For the same compound, the “meas. IC50 (APN)” value [2] was “no in- hibition”, the “meas. IC50 (cAAP)” value [3] was “no in- hibition” and the pIC50 (SZ95 cells) was 5.07. The “meas. IC50 (DP8/9)” value [4] was “no in- hibition”.
